Experimental data from patent publication US5605929A, “Methods and compositions for inhibiting 5α-reductase activity” (priority 1995, dated 1997).
Where two headings read alike, the source gives them in different places.

Tests used:
[1] = tested on: hamster flank organ; test: Flank organ, castrated immature male hamsters, topical treatment; format: in vivo, Syrian golden hamster; conditions: for effect on the contralateral flank organ: topical to right flank organ
Description: One to two weeks after castration, the hair on the lower back of each animal was clipped with an electric hair clipper and then shaved weekly to expose the flank organs. The animals were divided into 5 animals/treatment group. A treatment solution (5 μl) was applied topically to the right flank organ once a day using a Pipetteman and a polypropylene disposable tip. Unless specified the left flank organ was not treated. The treatment solution contained either (a) ethanol alone (vehicle and control), (b) an androgen (T or 5α-DHT), (c) a fatty acid, or (d) a combination of an androgen and a fatty acid. The flank organ was wiped with an alcohol pad to remove residual compound before each treatment. […] The flank organs, both the treated and untreated sides, were evaluated with methods to be described below to determine the effect of these treatments of the growth of the pigmented macules and the sebaceous glands. The body weight of each animal was recorded before and after treatment.
The data are presented as mean ± standard deviation. […]

[2] = molecular target: T1, 5α-Reductase of Rat Liver Microsomes (Rattus norvegicus, UniProt P24008); test: biochemical; conditions: for inhibition at 5 µM: read-out: % Inhibition of [^3 H]4-MA binding, Table 2, 5 μM
T1 sequence (P24008 1-259): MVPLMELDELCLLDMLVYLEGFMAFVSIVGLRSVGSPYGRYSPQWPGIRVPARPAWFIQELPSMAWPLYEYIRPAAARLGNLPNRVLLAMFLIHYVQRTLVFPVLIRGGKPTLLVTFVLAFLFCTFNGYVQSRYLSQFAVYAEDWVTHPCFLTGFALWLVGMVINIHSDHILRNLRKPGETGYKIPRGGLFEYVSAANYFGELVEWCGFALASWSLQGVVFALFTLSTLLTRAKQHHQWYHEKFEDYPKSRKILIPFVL

[3] = read-out: % Inhibition of [^3 H]4-MA binding, Table 2, 10 μM
[4] = read-out: % Inhibition of [^3 H]4-MA binding, Table 2, 40 μM
[5] = read-out: % Inhibition of [^3 H]4-MA binding, Table 2, 200 μM
[6] = read-out: % Inhibition of [^3 H]4-MA binding
[7] = read-out: % Inhibition of [^3 H]4-MA binding, Table 1, 10 μM
[8] = read-out: % Inhibition of [^3 H]4-MA binding, Table 1, 40 μM
[9] = read-out: % Inhibition of [^3 H]4-MA binding, Table 1, 200 μM

| SMILES | IC50 [2] [µM] | inhibition at 5 µM [2] [%] | inhibition at 10 µM [2, 3] [%] | inhibition at 40 µM [2, 4] [%] | inhibition at 200 µM [2, 5] [%] | also measured |
| --- | --- | --- | --- | --- | --- | --- |
| C[C@]12CC[C@H]3[C@@H](CCC4=CC(=O)CC[C@@]43C)[C@@H]1CC[C@@H]2O [T, Testosterone, reference compound] |  |  |  |  |  | Pigmented Macule, Untreated (L) ([1]; Table 4, T 0.5 μg alone, 18 days): 3.6 ± 0.5 mm^2; effect on the contralateral flank organ [1]: no detectable effect |
| CCCC/C=C\CCCCCCCCCCCC(=O)O [13-Octadecenoic Acid, 13-octadecenoic acid] | 93 | < 10 | < 10 | < 10 | 57 |  |
| CC/C=C\C/C=C\C/C=C\CCCCCCCC(=O)Cl [Linolenoyl Chloride] |  |  |  |  |  | inhibition at 200 µM [2, 6]: < 10% |
| CCCCCCCC/C=C\CCCCCCCCC(=O)O [10-cis-Nonadecenoic Acid, 10-nonadecenoic acid] | 130 | < 10 | < 10 | 13 | 79 |  |
| CCCCC/C=C\C/C=C\CCCCCCCCCC(=O)O [11,14-cis-Eicosadienoic Acid, 11,14 eicosadienoic acid] | 131 | < 10 | < 10 | < 10 | 89 |  |
| CCCCCC/C=C\CCCCCCCC(=O)OC [Palmitoleic acid methyl ester] |  |  |  |  |  | inhibition at 40 µM [2, 6]: < 10%; inhibition at 200 µM [2, 6]: < 10% |
| CCCCC/C=C/C/C=C/CCCCCCCCC#N [linolelaidyl cyanide nitrile] | > 200 |  |  |  |  |  |
| CCCCCC/C=C\CCCCCCCCC(=O)O [10-cis-Heptadecenoic Acid, 10-heptadecenoic acid] | 28 | < 10 | < 10 | 83 | 84 |  |
| CCCC/C=C\CCCCCCCCC(=O)O [10-Pentadecenoic Acid, 10-pentadecenoic acid] | 100 | < 10 | < 10 | < 10 | 71 |  |
| CCCCC/C=C\C/C=C\C/C=C\CCCCC(=O)Cl [γ-Linolenoyl Chloride, γ-linolenoyl chloride] | > 200 |  | < 10 | < 10 | < 10 |  |
| CCCCCCCC/C=C\CCCCCCCCCCC(=O)O | 154 | < 10 | 15 | 25 | 60 |  |
| CCCCCC/C=C\CCCCCCCC(=O)O [Palmitoleic acid] | 108 |  | < 10 | 16 | 73 | inhibition at 10 µM [2, 7]: < 10%; inhibition at 40 µM [2, 8]: 16 ± 5%; inhibition at 200 µM [2, 9]: 73 ± 7% |
| CCCCCCCCCCCCCCCCCCC#N [nonadecane nitrile] | > 200 |  |  |  |  |  |
| CCCCCC/C=C/CCCCCCCCC(=O)O [10-trans-Heptadecenoic Acid, 10-trans-heptadecenoicacid] | > 200 | < 10 | < 10 | < 10 | 40 |  |
| CCCCC/C=C\C/C=C\C/C=C\C/C=C\CCCCCC(=O)O | 46 | < 10 | < 10 | 41 | 79 |  |
| CCCCCCCCC=CCC=CCC=CCCCC(=O)O [5,8,11-eicosatrienoic acid] | 50 |  |  |  |  |  |
| CCCCCCCC/C=C/CCCCCCCCC(=O)O [10-trans-Nonadecenoic Acid, 10-trans nonadecenoic acid] | > 200 | < 10 | < 10 | < 10 | 32 |  |
| CCCCCCCCCCC/C=C\CCCCCCC(=O)O [8-Eicosenoic Acid, 8-eicosenoic acid] | 48 | 14 | 41 | 52 | 81 |  |
| CCCCCCCCCCC/C=C\CCCCC(=O)O [Petroselinic acid] |  |  |  | < 10 | 52 | inhibition at 40 µM [2, 8]: < 10%; inhibition at 200 µM [2, 9]: 52 ± 9% |
| CCCCCCC=CCCCCCCCCC(=O)OC [methyl 10-heptadecenoate] | > 200 |  |  |  |  |  |

| SMILES | IC50 [2] [µM] | inhibition at 5 µM [2] [%] | inhibition at 10 µM [2, 3] [%] | inhibition at 40 µM [2, 4] [%] | inhibition at 200 µM [2, 5] [%] | also measured |
| --- | --- | --- | --- | --- | --- | --- |
| CCCCC/C=C\C/C=C\CCCCCCCC(=O)OC [Linoleic acid methyl ester] |  |  |  |  |  | inhibition at 40 µM [2, 6]: < 10%; inhibition at 200 µM [2, 6]: < 10% |
| CCCCCCCC/C=C\CCCCCCCCCCCCC(=O)O [14-Tricosenoic Acid, 14 tricosenoic acid] | > 200 | < 10 | < 10 | < 10 | 36 |  |
| CCC=CCC=CCC=CCCCCCCCCCCCC(=O)OC [methyl 13,16,19-docosatrienoate] | > 200 |  |  |  |  |  |
| CCCCC/C=C\C/C=C\C/C=C\CCCCCCC(=O)O [8,11,14-cis-Eicosatrienoic Acid, 8,11,14-eicosatrienoic acid] | 15 | < 10 | 42 | 92 | 82 |  |
| CCCCCCCC/C=C\CCCCCCCCO [Oleyl alcohol] |  |  |  |  |  | inhibition at 40 µM [2, 6]: < 10%; inhibition at 200 µM [2, 6]: < 10% |
| CCCCCC/C=C/CCCCCCCCCC(=O)O [trans-Vaccenic Acid] |  |  |  |  | 39 |  |
| C[C@]12CCC(=O)C[C@@H]1CC[C@@H]1[C@@H]2CC[C@]2(C)[C@@H](O)CC[C@@H]12 [5α-DHT, 5α-dihydrotestosterone, reference compound] |  |  |  |  |  | effect on the contralateral flank organ [1]: no detectable effect |
| CCCCC/C=C\C/C=C\C/C=C\CCCCC(=O)O[C@H]1CC[C@@]2(C)C(=CC[C@H]3[C@@H]4CC[C@H]([C@H](C)CCCC(C)C)[C@@]4(C)CC[C@@H]32)C1 [cholesteryl γ-linolenate] | > 200 |  |  |  |  |  |
| CCCCCCCC/C=C\CCCCCCCCCC(=O)O [11-Eicosenoic Acid, 11 eicosenoic acid] | 146 | < 10 | < 10 | 15 | 76 |  |
| CC/C=C\C/C=C\C/C=C\CCCCCCCCCC(=O)O [11,14,17-cis-Eicosatrienoic Acid, 11,14,17-eicosatrienoic acid] | 29 | < 10 | 1 | 78 | 94 |  |
| CCCC/C=C\CCCCCCCC(=O)OC [myristoleic acid methyl ester] |  |  |  |  |  | inhibition at 200 µM [2, 6]: 27% |
| CCCCCCCCCCCCCCCCCCCC(=O)Cl [Arachidoyl Chloride, archidoyl chloride] | > 200 |  | < 10 | < 10 | < 10 |  |
| CCCCC/C=C\C/C=C\C/C=C\CCCCCCC(=O)Cl [homo-γ-linolenoyl chloride] | > 200 |  |  |  |  |  |
| CC/C=C\C/C=C\C/C=C\CCCCCCCCCCCC(=O)O [13,16,19-Docosatrienoic Acid, 13,16,19-docosatrienoic acid] | 163 | < 10 | < 10 | < 10 | 65 |  |
| CCCCC/C=C\C/C=C\C/C=C\CCCCCCC(=O)OC [methyl homo-γ-linolenate] | > 200 |  |  |  |  |  |
| CCCCC/C=C\C/C=C\C/C=C\CCCCCOC(C)=O [γ-Linolenyl Acetate, γ-linolenyl acetate] | > 200 | < 10 | < 10 | < 10 | 27 |  |
| CCCCC/C=C\CCCCCCCCCCC(=O)O [12-Octadecenoic Acid, 12-octadecenoic acid] | > 200 | < 10 | < 10 | < 10 | < 10 |  |
| CC/C=C\C/C=C\C/C=C\C/C=C\CCCCC(=O)O [Octadecatetraenoic acid] | 57 |  | < 10 | 40 | 88 | inhibition at 10 µM [2, 7]: < 10%; inhibition at 40 µM [2, 8]: 40 ± 6%; inhibition at 200 µM [2, 9]: 88 ± 2% |
| CCCCC/C=C\C/C=C\CCCCCCCCCC(=O)OC [11,14-cis-Eicosadienoate, methyl 11,14 eicosadienoate] | > 200 | < 10 | < 10 | < 10 | < 10 |  |
